Reference: the kinase profiling compilation of Christmann-Franck et al. (2016)

Experiments:
Assay in all cases: KINOMEscan competition binding
Conditions in all cases: compound 1.0 µM
[1] = tested on: EGFR (human), P00533 [747-751 del / S ins]
[2] = target: MARK1 (human) (UniProt Q9P0L2)
[3] = target: GSK3A (human) (UniProt P49840)
[4] = target: SIK1 (human) (UniProt P57059)
[5] = target: PRKACA (human) (UniProt P17612)
[6] = target: CDK11B (human) (UniProt P21127)
[7] = target: CAMK2G (human) (UniProt Q13555)
[8] = target: CDC2L2 (human) (UniProt Q9UQ88)
[9] = target: STK38L (human) (UniProt Q9Y2H1)
[10] = target: SRC (human) (UniProt P12931)
[11] = target: PRKCI (human) (UniProt P41743)
[12] = target: RPS6KA6 KD2 (human) (UniProt Q9UK32)
[13] = target: FGR (human) (UniProt P09769)
[14] = target: PRKAA1 (human) (UniProt Q13131)
[15] = tested on: PIK3CA (human), P42336 [I800L]
[16] = target: PRPF4B (human) (UniProt Q13523)
[17] = target: PIP5K1C (human) (UniProt O60331)
[18] = target: STK38 (human) (UniProt Q15208)
[19] = target: STK32C (human) (UniProt Q86UX6)
[20] = target: PLK4 (human) (UniProt O00444)
[21] = target: STK33 (human) (UniProt Q9BYT3)
[22] = target: STK10 (human) (UniProt O94804)
[23] = target: SRMS (human) (UniProt Q9H3Y6)
[24] = target: MAP3K12 (human) (UniProt Q12852)
[25] = target: CDK17 (human) (UniProt Q00537)
[26] = target: MKNK1 (human) (UniProt Q9BUB5)
[27] = target: RIPK4 (human) (UniProt P57078)
[28] = target: ROCK2 (human) (UniProt O75116)
[29] = target: RPS6KA1 KD1 (human) (UniProt Q15418)
[30] = target: PIM1 (human) (UniProt P11309)
[31] = target: FRK (human) (UniProt P42685)
[32] = target: MAP2K2 (human) (UniProt P36507)
[33] = target: TLK1 (human) (UniProt Q9UKI8)
[34] = target: TBK1 (human) (UniProt Q9UHD2)
[35] = target: PAK1 (human) (UniProt Q13153)
[36] = target: NTRK2 (human) (UniProt Q16620)
[37] = target: DYRK2 (human) (UniProt Q92630)
[38] = target: STK39 (human) (UniProt Q9UEW8)
[39] = target: HIPK2 (human) (UniProt Q9H2X6)
[40] = target: MAP3K2 (human) (UniProt Q9Y2U5)
[41] = target: SLK (human) (UniProt Q9H2G2)
[42] = target: BRAF (human) (UniProt P15056)
[43] = target: TYRO3 (human) (UniProt Q06418)

PIK3CA (human), P42336 [I800L], sequence (P42336 whole entry I800L, looked up): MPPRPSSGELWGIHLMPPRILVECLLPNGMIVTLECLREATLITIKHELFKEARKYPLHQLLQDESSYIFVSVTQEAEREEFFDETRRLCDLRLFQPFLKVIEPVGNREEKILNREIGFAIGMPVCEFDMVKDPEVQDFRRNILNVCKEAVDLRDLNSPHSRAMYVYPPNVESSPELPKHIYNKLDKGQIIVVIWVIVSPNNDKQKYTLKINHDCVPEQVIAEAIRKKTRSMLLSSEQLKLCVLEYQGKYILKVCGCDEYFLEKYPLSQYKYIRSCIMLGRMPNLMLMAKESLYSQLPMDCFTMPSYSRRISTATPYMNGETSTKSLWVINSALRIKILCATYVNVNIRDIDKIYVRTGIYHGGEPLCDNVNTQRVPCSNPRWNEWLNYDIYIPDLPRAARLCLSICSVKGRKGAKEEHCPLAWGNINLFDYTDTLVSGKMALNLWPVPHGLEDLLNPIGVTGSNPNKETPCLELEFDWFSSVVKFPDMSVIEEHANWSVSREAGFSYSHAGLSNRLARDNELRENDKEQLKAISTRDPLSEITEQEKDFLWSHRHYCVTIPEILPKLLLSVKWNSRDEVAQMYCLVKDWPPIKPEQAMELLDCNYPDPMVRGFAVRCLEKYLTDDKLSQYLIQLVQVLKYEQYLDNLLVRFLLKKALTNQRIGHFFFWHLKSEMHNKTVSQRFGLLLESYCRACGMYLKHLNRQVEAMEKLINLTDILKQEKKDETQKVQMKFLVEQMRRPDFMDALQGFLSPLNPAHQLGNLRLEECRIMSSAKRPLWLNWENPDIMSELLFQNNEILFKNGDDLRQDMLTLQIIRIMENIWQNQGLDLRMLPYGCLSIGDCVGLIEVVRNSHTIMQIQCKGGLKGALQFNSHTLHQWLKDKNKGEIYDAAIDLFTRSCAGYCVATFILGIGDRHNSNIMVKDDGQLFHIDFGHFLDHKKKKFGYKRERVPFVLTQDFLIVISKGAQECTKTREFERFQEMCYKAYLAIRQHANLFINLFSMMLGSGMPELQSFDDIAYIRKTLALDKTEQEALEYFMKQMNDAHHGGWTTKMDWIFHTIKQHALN
PIM1 (human), sequence (P11309 whole entry, looked up): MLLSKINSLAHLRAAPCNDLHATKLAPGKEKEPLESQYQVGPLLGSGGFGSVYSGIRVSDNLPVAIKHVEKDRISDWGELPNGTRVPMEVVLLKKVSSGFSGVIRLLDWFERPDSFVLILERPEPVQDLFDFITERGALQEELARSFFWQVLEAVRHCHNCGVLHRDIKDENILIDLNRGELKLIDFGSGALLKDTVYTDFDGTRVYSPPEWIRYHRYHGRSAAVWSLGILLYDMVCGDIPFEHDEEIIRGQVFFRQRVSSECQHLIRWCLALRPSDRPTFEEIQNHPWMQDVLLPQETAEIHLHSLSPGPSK
FRK (human), sequence (P42685 whole entry, looked up): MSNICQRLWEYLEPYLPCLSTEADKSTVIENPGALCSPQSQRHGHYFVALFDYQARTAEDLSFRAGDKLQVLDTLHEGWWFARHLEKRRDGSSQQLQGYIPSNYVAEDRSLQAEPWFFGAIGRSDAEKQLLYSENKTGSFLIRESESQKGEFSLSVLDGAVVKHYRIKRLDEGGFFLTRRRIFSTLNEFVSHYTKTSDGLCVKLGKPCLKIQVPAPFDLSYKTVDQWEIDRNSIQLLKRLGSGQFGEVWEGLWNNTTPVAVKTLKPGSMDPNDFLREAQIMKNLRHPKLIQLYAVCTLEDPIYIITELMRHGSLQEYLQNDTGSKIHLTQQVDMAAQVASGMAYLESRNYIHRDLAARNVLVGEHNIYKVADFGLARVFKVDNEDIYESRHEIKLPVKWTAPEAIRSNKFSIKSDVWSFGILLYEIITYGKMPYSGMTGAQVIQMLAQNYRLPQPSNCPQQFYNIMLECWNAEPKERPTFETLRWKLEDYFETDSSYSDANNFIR
MAP3K2 (human), sequence (Q9Y2U5 whole entry, looked up): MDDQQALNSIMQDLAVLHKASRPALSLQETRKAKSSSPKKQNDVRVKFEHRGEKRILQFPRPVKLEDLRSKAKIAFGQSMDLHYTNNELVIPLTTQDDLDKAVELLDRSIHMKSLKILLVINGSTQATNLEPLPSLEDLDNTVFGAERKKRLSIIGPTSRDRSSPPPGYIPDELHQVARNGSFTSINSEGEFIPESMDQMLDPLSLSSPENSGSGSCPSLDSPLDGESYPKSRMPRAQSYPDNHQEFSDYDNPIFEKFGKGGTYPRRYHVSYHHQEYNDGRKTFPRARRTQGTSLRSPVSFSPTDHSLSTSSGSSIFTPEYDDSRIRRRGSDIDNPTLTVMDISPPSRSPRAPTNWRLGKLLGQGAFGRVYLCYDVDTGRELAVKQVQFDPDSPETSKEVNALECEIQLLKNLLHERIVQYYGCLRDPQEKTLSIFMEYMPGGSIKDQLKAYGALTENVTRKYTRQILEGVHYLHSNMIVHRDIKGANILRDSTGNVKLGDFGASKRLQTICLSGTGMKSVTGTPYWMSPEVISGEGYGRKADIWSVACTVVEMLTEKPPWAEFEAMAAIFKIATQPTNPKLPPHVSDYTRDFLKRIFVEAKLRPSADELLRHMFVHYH
STK38 (human), sequence (Q15208 whole entry, looked up): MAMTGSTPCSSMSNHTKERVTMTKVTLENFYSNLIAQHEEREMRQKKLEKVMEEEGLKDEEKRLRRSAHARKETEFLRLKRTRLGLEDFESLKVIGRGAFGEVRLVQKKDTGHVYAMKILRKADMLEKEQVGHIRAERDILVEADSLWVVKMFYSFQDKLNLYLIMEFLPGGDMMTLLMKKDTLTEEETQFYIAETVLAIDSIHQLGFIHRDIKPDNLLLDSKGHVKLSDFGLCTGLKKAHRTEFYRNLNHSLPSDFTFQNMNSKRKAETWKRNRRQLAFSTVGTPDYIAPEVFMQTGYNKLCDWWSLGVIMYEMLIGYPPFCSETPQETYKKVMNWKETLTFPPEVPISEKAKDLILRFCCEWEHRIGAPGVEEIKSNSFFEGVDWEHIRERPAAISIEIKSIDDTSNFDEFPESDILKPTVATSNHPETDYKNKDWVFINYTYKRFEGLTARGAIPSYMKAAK
SRC (human), sequence (P12931 whole entry, looked up): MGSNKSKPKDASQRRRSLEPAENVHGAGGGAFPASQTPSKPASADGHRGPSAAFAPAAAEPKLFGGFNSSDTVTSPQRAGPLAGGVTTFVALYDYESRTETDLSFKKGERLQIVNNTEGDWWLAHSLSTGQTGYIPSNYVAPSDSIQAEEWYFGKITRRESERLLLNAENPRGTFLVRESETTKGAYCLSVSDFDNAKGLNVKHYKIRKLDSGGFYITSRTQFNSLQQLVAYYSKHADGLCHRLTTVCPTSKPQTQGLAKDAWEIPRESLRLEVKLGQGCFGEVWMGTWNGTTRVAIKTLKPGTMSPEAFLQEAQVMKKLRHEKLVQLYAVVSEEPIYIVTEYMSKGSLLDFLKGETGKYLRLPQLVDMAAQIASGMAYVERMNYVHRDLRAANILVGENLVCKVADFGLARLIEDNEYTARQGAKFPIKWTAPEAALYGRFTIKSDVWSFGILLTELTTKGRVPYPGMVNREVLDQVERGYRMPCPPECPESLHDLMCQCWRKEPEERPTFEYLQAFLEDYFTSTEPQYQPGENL
MAP2K2 (human), sequence (P36507 whole entry, looked up): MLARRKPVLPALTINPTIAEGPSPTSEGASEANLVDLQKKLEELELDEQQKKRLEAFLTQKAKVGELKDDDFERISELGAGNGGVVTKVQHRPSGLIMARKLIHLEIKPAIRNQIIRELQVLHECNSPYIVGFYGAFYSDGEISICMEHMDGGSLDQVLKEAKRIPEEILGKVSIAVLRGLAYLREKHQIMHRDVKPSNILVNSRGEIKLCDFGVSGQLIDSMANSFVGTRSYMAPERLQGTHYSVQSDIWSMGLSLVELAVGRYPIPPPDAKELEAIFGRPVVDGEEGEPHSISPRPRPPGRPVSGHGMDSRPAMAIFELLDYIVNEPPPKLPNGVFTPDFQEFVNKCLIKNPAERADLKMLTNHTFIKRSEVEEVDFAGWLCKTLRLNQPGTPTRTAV
RPS6KA1 KD1 (human), sequence (Q15418 whole entry, looked up): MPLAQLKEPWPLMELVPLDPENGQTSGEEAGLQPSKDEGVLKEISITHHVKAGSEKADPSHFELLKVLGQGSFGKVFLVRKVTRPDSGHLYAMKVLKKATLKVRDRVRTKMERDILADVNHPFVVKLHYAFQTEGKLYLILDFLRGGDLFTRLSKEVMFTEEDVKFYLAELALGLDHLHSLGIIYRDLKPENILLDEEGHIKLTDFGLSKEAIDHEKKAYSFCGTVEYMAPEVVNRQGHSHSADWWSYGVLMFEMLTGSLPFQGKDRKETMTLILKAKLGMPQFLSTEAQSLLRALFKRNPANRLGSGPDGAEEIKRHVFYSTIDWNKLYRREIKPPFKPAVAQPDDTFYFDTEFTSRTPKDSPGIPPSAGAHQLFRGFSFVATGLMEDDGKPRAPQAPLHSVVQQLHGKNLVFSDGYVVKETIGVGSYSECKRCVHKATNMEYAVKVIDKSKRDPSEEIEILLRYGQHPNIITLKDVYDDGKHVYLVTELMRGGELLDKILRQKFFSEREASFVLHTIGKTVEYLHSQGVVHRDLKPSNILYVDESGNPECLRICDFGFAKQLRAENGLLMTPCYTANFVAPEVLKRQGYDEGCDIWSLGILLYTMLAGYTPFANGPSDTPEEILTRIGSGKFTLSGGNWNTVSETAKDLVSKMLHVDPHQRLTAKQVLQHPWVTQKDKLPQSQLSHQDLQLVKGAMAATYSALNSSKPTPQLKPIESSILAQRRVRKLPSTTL

Compound: Cc1cc(NC(=O)c2cccc(NC(=O)/C=C/CN(C)C)c2)ccc1Nc1nccc(-c2cccnc2)n1
- kinase still bound, per cent of control [1]: 95%
- kinase still bound, per cent of control [2]: 100%
- kinase still bound, per cent of control [3]: 92%
- kinase still bound, per cent of control [4]: 100%
- kinase still bound, per cent of control [5]: 100%
- kinase still bound, per cent of control [6]: 100%
- kinase still bound, per cent of control [7]: 100%
- kinase still bound, per cent of control [8]: 98%
- kinase still bound, per cent of control [9]: 100%
- kinase still bound, per cent of control [10]: 87%
- kinase still bound, per cent of control [11]: 93%
- kinase still bound, per cent of control [12]: 76%
- kinase still bound, per cent of control [13]: 100%
- kinase still bound, per cent of control [14]: 100%
- kinase still bound, per cent of control [15]: 88%
- kinase still bound, per cent of control [16]: 100%
- kinase still bound, per cent of control [17]: 93%
- kinase still bound, per cent of control [18]: 97%
- kinase still bound, per cent of control [19]: 95%
- kinase still bound, per cent of control [20]: 58%
- kinase still bound, per cent of control [21]: 100%
- kinase still bound, per cent of control [22]: 100%
- kinase still bound, per cent of control [23]: 94%
- kinase still bound, per cent of control [24]: 99%
- kinase still bound, per cent of control [25]: 100%
- kinase still bound, per cent of control [26]: 81%
- kinase still bound, per cent of control [27]: 79%
- kinase still bound, per cent of control [28]: 49%
- kinase still bound, per cent of control [29]: 99%
- kinase still bound, per cent of control [30]: 100%
- kinase still bound, per cent of control [31]: 100%
- kinase still bound, per cent of control [32]: 91%
- kinase still bound, per cent of control [33]: 98%
- kinase still bound, per cent of control [34]: 100%
- kinase still bound, per cent of control [35]: 100%
- kinase still bound, per cent of control [36]: 96%
- kinase still bound, per cent of control [37]: 20%
- kinase still bound, per cent of control [38]: 95%
- kinase still bound, per cent of control [39]: 71%
- kinase still bound, per cent of control [40]: 100%
- kinase still bound, per cent of control [41]: 100%
- kinase still bound, per cent of control [42]: 90%
- kinase still bound, per cent of control [43]: 85%
